Source: patent US20250144128A1, “CANCER TREATMENT” (Nucana plc, priority 2022, published 2025)

Tests used:
[1] = system: adenosine deaminase (ADA); settings: inactive metabolite 3′-deoxyinosine; Tsai et al. 2010; cited from earlier work
[2] = system: exosomal PD-L1; assay: exosomal PD-L1 in plasma of patients treated with NUC-7738 (capillary-based immune probing, PD-L1/CD81); type: in vivo, human; settings: for PD-L1/CD81 values: plasma exosomes, Pre C2 (15 days after initial cycle)
[3] = system: exosomal PD-L1; assay: as above; type: in vivo, human; settings: plasma exosomes; for PD-L1/CD81 values: 24 h Post C1
Method: Patients were treated with NUC-7738 on days 1 and 8 of a 14-day cycle. Patient plasma samples were collected pre-dose, 24 hr after NUC-7738 dosage and the 24 hours post Cycle 2 (that is the second occasion at which patients received treatment).
Patient plasma samples were centrifuged at 3000×g for 15 minutes to remove cellular debris. Then, the supernatant was aliquoted in 250 μL measures and stored in−80° C. freezers. For exosomal isolation ExoQuick® ULTRA EV Isolation Kit for Serum and Plasma (System Biosciences Cat #EQULTRA-20A-1) according to manufacturer's protocol. In brief, 250 μL of plasma samples free of cellular debris was used and 67 μL ExoQuick Solution was added, followed by a 30 minute incubation period at 4° C. After that, the plasma sample and ExoQuick Solution mixture were centrifuged at 3000×g for 10 minutes. Then, carefully without disturbing the pellet, all of the supernatant was aspirated off, making sure no residual traces remained. Next, the pellet was resuspended in Buffer B provided, followed by the addition of Buffer A. The samples was homogenised in the buffer by carefully pipetting up and down until no clumps of the pellet were seen. The resin purification columns were conditioned by removing the storage buffer and washing it with Buffer B. The samples were added to the conditioned purification column and centrifuged at 1000×g for 30 seconds. The eluted samples were quantified for protein concentration using Qubit™ Protein and Protein Broad Range (BR) Assay Kits (Thermofisher Cat #A50668). Samples were then aliquoted according to the required amounts for the downstream applications and stored −80° C.
Analysis of PD-L1 expression in exosomes isolated from plasma samples was carried out using automated western blotting JESS system (BioTechne, ProteinSimples). The 12-230 kDa Separation Module of 25 capillaries kit (ProteinSimple, Cat #SM-W004) was used per manufacture protocol. Briefly, samples were prepared at the appropriate concentration using the kit master-mix and sample dilution buffer containing DT, samples were then denatured for 5 minutes at 95° C. All samples, primary antibodies and secondary antibodies were loaded into the plate provided. Anti-CD81 antibody [M38] (Abcam, Cat #ab79559) diluted at 1:100 and PD-L1 (E1L3N®) XP® Rabbit mAb (Cell Signalling, Cat #13684) diluted at 1:50 were used. Secondary antibodies used were from the anti-mouse chemiluminescence (ProteinSimple, Cat #DM002) and anti-rabbit near-infrared (NIR) (ProteinSimple, Cat #DM007) detection module, they were used at recommended dilution. The prepared plates and capillaries were then loaded onto the JESS, and sample run at the defaults settings. The expression was determined by the area under the curve using Compass Software v 6.1 (ProteinSimple).

[4] = system: sPD-L1, A375 melanoma or A549 lung cancer cell lines; assay: sPD-L1 in media supernatant in the cell line studies (sandwich ELISA), cell line not specified; type: cell-based; settings: NUC-7738 10 uM vs DMSO
Method: For sPDL1 analysis, a similar process was undertaken. Cells were grown in Corning® 100 mm TC-treated Culture Dish with DMEM, high glucose, GlutaMAX™ Supplement (ThermoFisher Cat #10566016) supplemented with 10% FBS and 1% Penicillin-Streptomycin (ThermoFisher Cat #15070063), with approximately 2×10^6 cells.
(§1) A375 melanoma cell lines and A549 lung cancer cell lines were treated with solvent-control DMSO or NUC-7738 (10 uM) for 72 hours, after which media supernatants were collected for either soluble PD-L1 analysis or EV isolation. In addition, adherent cells were collected for RNA and protein isolation.
Patient plasma samples were centrifuged at 3000×g for 15 minutes to remove cellular debris. […]
For quantitative measurement of soluble PD-L1 in patient and in-vitro samples Quantikine® ELISA Human/Cynomolgus Monkey PD-L1/B7-H1 Immunoassay (R&D Systems Cat. #DB7H10) was used as per manufacturers recommendation. […]
In brief, the protocol included the preparation of the standard curve from the Human/Cynomolgus Monkey PD-L1/B7-H1 protein standard ranging from […]. […] The wells were read using a microplate reader set to 450 nm and 540 nm for wavelength correction to determine the optical density.
Analysis of the results included subtracting the 540 nm readings from 450 nm reading and subtracting blank, diluent only, sample readings. […]

[5] = system: ExoPD-L1, A375 melanoma or A549 lung cancer cell lines; assay: ExoPD-L1 protein in exosomes from the cell line studies; type: cell-based; settings: NUC-7738 10 uM vs DMSO
Method: For Extracellular Vesicle (EV, exosome) preparation, cells were cultured in T175 Nunc™ EasYFlask™ Cell Culture Flasks (ThermoFisher Cat #159910), approximately 50×10^6 cells. Cells were grown in DMEM, high glucose, GlutaMAX™ Supplement (ThermoFisher Cat #10566016) supplemented with 5% exosome free FBS and 1% Penicillin-Streptomycin (ThermoFisher Cat #15070063).
as §1
Isolation of exosomes from in-vitro samples involved growing cells in 5 separate T175 Nunc™ EasYFlask™ Cell Culture Flasks (ThermoFisher Cat #159910) which approximated to 50×10^6 cells. Cells were grown in DMEM, high glucose, GlutaMAX™ Supplement (ThermoFisher Cat #10566016) in addition, this was supplemented with exosome free FBS. […]
Analysis of PD-L1 expression in exosomes isolated from plasma samples was carried out using automated western blotting JESS system (BioTechne, ProteinSimples). […] The expression was determined by the area under the curve using Compass Software v 6.1 (ProteinSimple).

[6] = system: A375 melanoma or A549 lung cancer cell lines; assay: mRNA decrease in the cell line studies (RT-qPCR), cell line not specified; type: cell-based; settings: NUC-7738 10 uM vs DMSO
Method: as §1
To determine RNA expression of soluble transcript, cells were lysed and RNA isolated using the RNAeasy Kit (Qiagen, Cat #74136). This was then followed by RNA reverse transcription into cDNA using QuantiNova Reverse Transcription Kit (Qiagen, Cat #205413). Primers for each gene were designed using PrimerQuest™ (Integrated DNA Technologies) and ordered at 100 uM concentrations from IDT. The soluble PD-L1 transcript primer was designed to create an amplicon of about 100 bp size crossing the exon 4 and intron 4 junction.
RT-qPCR was carried out using the qPCRBIO SyGreen MasterMix kit (PCRBiossystems Cat #PB20.14-50) and the Rotor qene Q qPCR machine (Qiagen). Ct values were analysed using the Rotor qene Q Software. Fold change were calculated using the AACt values.

[7] = patient 001-002, Pre C1 (untreated) 0.044
[8] = patient 001-019, Pre C1 (untreated) 0.039
[9] = patient 002-002, Pre C1 (untreated) 0.035
[10] = patient 003-008, Pre C1 (untreated) 0.045

In the case of `Nc1ncnc2c1ncn2[C@@H]1O[C@H](CO)C[C@H]1O` [3′-dA, 3′-deoxyadenosine], the “metabolism after administration, in vivo” value [1] is listed as “quickly deaminated by adenosine deaminase (ADA), and rapidly metabolized to an inactive metabolite”.

For `C[C@H](NP(=O)(OC[C@@H]1CC(O)[C@H](n2cnc3c(N)ncnc32)O1)Oc1ccccc1)C(=O)OCc1ccccc1` (stereo partly drawn) [NUC-7738, 3′-deoxyadenosine-5′-O-[phenyl(benzyloxy-L-alaninyl)] phosphate], the PD-L1/CD81 values [2, 7] was 0.025, the PD-L1/CD81 values [2, 8] was 0.049 and the PD-L1/CD81 values [2, 9] was 0.023. The PD-L1/CD81 values [2, 10] was 0.029, the “reductions in Exo-PD-L1 compared to pre-treatment levels” value ([2]; preliminary studies, serum from 4 patients treated with NUC-7738) was ≤ 50% and the PD-L1/CD81 values [3, 7] was 0.047. For the same compound, the “time within which the reduction of the PD-L1/CD81 ratio is seen” value ([3]; patient 001-019) was ≤ 24 h, the PD-L1/CD81 values [3, 8] was 0.02 and the PD-L1/CD81 values [3, 9] was 0.043. The PD-L1/CD81 values [3, 10] was 0.041, the “time dependent decrease of sPD-L1 expression in the media supernatant” value [4] was “up to 3 fold” and the “reduction of ExoPD-L1 protein” value [5] was 50%. For the same compound, the “decrease of mRNA” value [6] was “up to 40%”.
